Where two headings read alike, the source gives them in different places.
Experiments:
[1] = target: T1, Human α-thrombin (Homo sapiens, UniProt P00734); test: Inhibition of thrombin-catalyzed hydrolysis of chromogenic substrate S-2366 (inhibition constant Ki); type: biochemical; settings: for Kd: KD (dissociation constant of open species = Ki x popen); for Ki: pH 7.6
T1 construct: Human α-thrombin was purchased from Haemotologic Technologies, Inc., VT, USA; purchased Haemotologic Technologies, Inc., VT, USA

[2] = Thermal unfolding of hairpin linkers (Tm, unfolded population punfold); type: physicochemical; settings: calculated, two-state unfolding
From the text: Assuming a two-state unfolding of the trpzip linkers, the unfolded populations punfold=popen (Table 3) can be calculated using reported thermal characteristics of isolated trpzip peptides (Cochran 2001). It is important (Cochran 2001) to take into consideration bulk temperature dependences of the enthalpy and entropy differences between folded and unfolded states of trpzip peptides (Privalov 1997). Disregard for the appreciable ΔCp difference between folded and unfolded species would lead to particularly large underestimation of punfold for BTI5, since the bulk temperatures used for Ki determination were far from the trpzip4 folding transition point.
The punfold value for the BTI2 inhibitor was calculated using ΔH=11.6 kcal/mol and ΔS=39 cal/mol/K obtained in earlier studies of the gb1 peptide (Munoz 1997), which gives punfold values of 0.44 and 0.69 at 21° C. and 37° C., respectively. […] (Table 3). More importantly, all the KD values are close to those of BTI1 which contains a flexible (or random-coil) (GS)8 linker, which confirms the predicted small variation in KD values for bivalent ligands connected by flexible linkers of equal contour length and similar composition (Zhou 2001a; Zhou, 2001b).

CC[C@H](C)[C@H](NC(=O)[C@H](CCC(=O)O)NC(=O)[C@H](CCC(=O)O)NC(=O)[C@H](Cc1ccccc1)NC(=O)[C@H](CC(=O)O)NC(=O)CNC(=O)[C@H](CO)NC(=O)CNC(=O)[C@H](CO)NC(=O)CNC(=O)[C@H](CO)NC(=O)CNC(=O)[C@H](CO)NC(=O)CNC(=O)[C@H](CO)NC(=O)CNC(=O)[C@H](CO)NC(=O)CNC(=O)[C@H](CO)NC(=O)CNC(=O)[C@H](CO)NC(=O)CNC(=O)[C@H]1CCCCN1C(=O)[C@H](CCCNC(=N)N)NS(=O)(=O)c1ccc(C(C)(C)C)cc1)C(=O)N1CCC[C@H]1C(=O)N[C@@H](CCC(=O)O)C(=O)N[C@@H](CCC(=O)O)C(=O)N[C@@H](Cc1ccc(O)cc1)C(=O)N[C@@H](CC(C)C)C(=O)N[C@@H](CCC(N)=O)C(=O)O [BTI1]
Kd ([1]; T = 21° C.): 0.53 ± 0.03 nM
Kd ([1]; T = 37° C.): 1.3 ± 0.3 nM
Ki ([1]; Ki, T = 21° C.): 0.53 ± 0.03 nM
Ki ([1]; T = 37° C., read-out: Ki): 1.3 ± 0.3 nM
punfold (population of unfolded/open linker) ([2]; T = 21° C.): 1
punfold (population of unfolded/open linker) ([2]; T = 37° C.): 1

— patent US10155802B2, “Locally-active anticoagulants and anti-inflammatory agents” (priority 2011, dated 2018)
